15 molecules from US7361783B2, “(2S)-2-ethylphenylpropionic acid derivative” (Kyorin Pharmaceutical Co., Ltd., priority 2002, dated 2008) can be followed below.

The target in data set [1] is T1, human peroxisome proliferator-activated receptor (PPAR) α (Homo sapiens, UniProt Q07869).
T1 construct: expressed in transfected cells; host or cells: CHO cells
T1 sequence (Q07869 239-466 limits assumed): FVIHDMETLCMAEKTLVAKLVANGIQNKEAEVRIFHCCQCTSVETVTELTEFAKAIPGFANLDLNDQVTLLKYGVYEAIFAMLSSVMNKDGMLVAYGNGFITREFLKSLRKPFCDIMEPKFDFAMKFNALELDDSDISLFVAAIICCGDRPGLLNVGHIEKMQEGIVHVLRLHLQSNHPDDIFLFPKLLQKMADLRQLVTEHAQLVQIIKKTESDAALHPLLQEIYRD
Put plainly: Test of transcriptional activation on human PPARα (luciferase reporter, transfected CHO cells). Type of data set: cell-based. To be noted: CHO cells cotransfected with yeast DNA-binding domain/human PPARα ligand-binding domain fusion and reporter plasmid; luciferase after 24 hours, corrected with Renilla internal standard. On the procedure:
Test of Transcriptional Activation on Human Peroxisome Proliferator-activated Receptor (PPAR) α
The CHO cells were cultured in a Dulbecco-modified Eagle's medium containing 10% delipid fetal calf serum (FCS/DMEM). To these cells were cotransfected receptor plasmid and its reporter plasmid (STRATAGENE Corp.) that express fused protein of DNA-binding domain being transcription factor of yeast with ligand-binding domain of human PPARα (Biochemistry, 1993, 32, 5598), and luciferase plasmid of Renilla (Promega Corp.) for internal standard, using lipofectamine. Thereafter, testing compound or (8S)-HETE being a control compound was added in the 10% SFCS/DMEM and both luciferase activities were measured after 24 hours, which were corrected with internal standard.
(In general: In a reporter assay the amount or activity of a reporter protein is the signal.)

Another data set deals with male Beagle dog. Put plainly: Test of lipid-lowering effect in Beagle dog. The note with it: serum; oral 0.03 mg/kg/day once a day for 14 days; before vs after administration. The format is in vivo. On the procedure: Test of Lipid-lowering Effect
To a 27-month old male Beagle dog (HRA Beagle; Convance Research Products Inc.) was orally administered testing compound (0.3 mg/mL) in weak aqueous alkali solution sealed in a gelatin capsule once a day for continuous 14 days (0.03 mg/kg/day). For the feed during the period of administration, standard diet (Canine diet, PMI nutrition International Inc.) was used. Blood was collected before start of administration and after administration for 14 days, and total cholesterol value in serum and triglyceride value were measured by enzymic method [Cholesterol E-Test Wako (Wako Pure Chemical Industries,Ltd.), Liquitec TGII reagent 1, 2 (Rosch) and standard serum for measurement of lipid (Rosch) were used]. The decreasing rates of total cholesterol value and triglyceride value were calculated, respectively, according to following calculation formula. Decreasing rate (%)=(Measured value before administration−Measured value after administration)/Measured value before administration×100 [Result]

The term melting point denotes the temperature of the solid-liquid transition. `CC[C@@H](Cc1ccc(OC)c(C(=O)NCc2ccc(Oc3cccc(F)c3F)cc2)c1)C(=O)O` [Example 11, (2S)-2-{[3-(N-{[4-(2,3-Difluorophenoxy)phenyl]methyl}carbamoyl)-4-methoxyphenyl]methyl}butyric acid] showed a melting point of 93 to 95 °C.

Usually EC50 stands for the concentration that produces a half-maximal response. The low end stands for greater potency, the high end for weaker potency. With `CC[C@@H](Cc1ccc(OC)c(C(=O)NCc2ccc(Oc3ccc(F)c(F)c3)cc2)c1)C(=O)O` [Example 9, (2S)-2-{[3-(N-{[4-(3,4-Difluorophenoxy)phenyl]methyl}carbamoyl)-4-methoxyphenyl]methyl}butyric acid], the melting point lay in the range of 118 to 120 °C. In addition, in data set [1], the midpoint of the response, the EC50, lay at 1.6 nM. With `CC[C@@H](Cc1ccc(OC)c(C(=O)NCc2ccc(Oc3ccc(Cl)c(F)c3)cc2)c1)C(=O)O` [Example 32, (2S)-2-{[4-Methoxy-3-(N-{[4-(4-chloro-3-fluorophenoxy)phenyl]methyl}carbamoyl)phenyl]methyl}butyric acid], the melting point lay in the range of 117 to 118 °C.

Take `CC[C@@H](Cc1ccc(OC)c(C(=O)NCc2ccc(Oc3cc(C(F)(F)F)cc(C(F)(F)F)c3)cc2)c1)C(=O)O` [Example 15, (2S)-2-({3-[N-({4-[3,5-Bis(trifluoromethyl)phenoxy]phenyl}methyl)carbamoyl]-4-methoxyphenyl}methyl)butyric acid]: the melting point is 125 to 127 °C. Consider `CC[C@@H](Cc1ccc(OC)c(C(=O)NCc2ccc(Oc3ccc(Br)c(Cl)c3)cc2)c1)C(=O)O` [Example 33, (2S)-2-{[4-Methoxy-3-(N-{[4-(4-bromo-3-chlorophenoxy)phenyl]methyl}carbamoyl)phenyl]methyl}butyric acid], for which the melting point is 140 to 142 °C. Regarding `CC[C@@H](Cc1ccc(OC)c(C(=O)NCc2ccc(Oc3cc(F)cc(F)c3)cc2)c1)C(=O)O` [Example 10, (2S)-2-{[3-(N-{[4-(3,5-Difluorophenoxy)phenyl]methyl}carbamoyl)-4-methoxyphenyl]methyl}butyric acid], the melting point lay in the range of 140 to 142 °C. In the data set on male Beagle dog, the “Decreasing rate Total cholesterol” value came to 28% and the “Decreasing rate Triglyceride” value amounted to 50%. The molecule further had an EC50 in data set [1] of 2.9 nM.

Turning to `CC[C@@H](Cc1ccc(OC)c(C(=O)NCc2ccc(Oc3cc(F)ccc3F)cc2)c1)C(=O)O` [Example 13, (2S)-2-{[3-(N-{[4-(2,5-Difluorophenoxy)phenyl]methyl}carbamoyl)-4-methoxyphenyl]methyl}butyric acid], the melting point was in the range of 116 to 118 °C. Same read-out and setting: in the case of `CC[C@@H](Cc1ccc(OC)c(C(=O)NCc2ccc(Oc3ccc(Cl)c(Cl)c3)cc2)c1)C(=O)O` [Example 31, (2S)-2-{[4-Methoxy-3-(N-{[4-(3,4-dichlorophenoxy)phenyl]methyl}carbamoyl)phenyl]methyl}butyric acid] it was 139 to 141 °C; in that of `CC[C@@H](Cc1ccc(OC)c(C(=O)NCc2ccc(Oc3ccc(Cl)c(C(F)(F)F)c3)cc2)c1)C(=O)O` [Example 34, (2S)-2-{[4-Methoxy-3-(N-{[4-(4-chloro-3-trifluoromethylphenoxy)phenyl]methyl}carbamoyl)phenyl]methyl}butyric acid], 141 to 142 °C; in that of `CC[C@@H](Cc1ccc(OC)c(C(=O)NCc2ccc(Oc3cc(F)c(F)c(F)c3)cc2)c1)C(=O)O` [Example 17, (2S)-2-{[4-Methoxy-3-(N-{[4-(3,4,5-trifluorophenoxy)phenyl]methyl}carbamoyl)phenyl]methyl}butyric acid], 133 to 135 °C. Still for that read-out and setting: in the case of `CC[C@@H](Cc1ccc(OC)c(C(=O)NCc2ccc(Oc3cc(F)cc(C(F)(F)F)c3)cc2)c1)C(=O)O` [Example 35, (2S)-2-{[4-Methoxy-3-(N-{[4-(3-fluoro-5-trifluoromethylphenoxy)phenyl]methyl}carbamoyl)phenyl]methyl}butyric acid] it was 125 to 128 °C; in that of `CC[C@@H](Cc1ccc(OC)c(C(=O)NCc2ccc(Oc3cc(Cl)cc(Cl)c3)cc2)c1)C(=O)O` [Example 30, (2S)-2-{[4-Methoxy-3-(N-{[4-(3,5-dichlorophenoxy)phenyl]methyl}carbamoyl)phenyl]methyl}butyric Acid], 145 to 148 °C. Consider `CC[C@@H](Cc1ccc(OC)c(C(=O)NCc2ccc(Oc3cc(F)c(F)c(F)c3)cc2)c1)C(=O)OC` [Example 16, Methyl (2S)-2-{[4-methoxy-3-(N-{[4-(3,4,5-trifluorophenoxy)phenyl]methyl}carbamoyl)phenyl]methyl}butyrate], for which, in data set [1], the concentration for a half-maximal effect (EC50) came to 2.3 nM. The molecule `CC[C@@H](Cc1ccc(OC)c(C(=O)NCc2ccc(Oc3c(F)cccc3F)cc2)c1)C(=O)O` [Example 14, (2S)-2-{[3-(N-{[4-(2,6-Difluorophenoxy)phenyl]methyl}carbamoyl)-4-methoxyphenyl]methyl}butyric acid] had a melting point of 106 to 108 °C.

For the molecule `CCCCC/C=C\C/C=C\C=C\[C@@H](O)C/C=C\CCCC(=O)O` [(8S)-HETE, reference compound], a half-maximal response in data set [1] (EC50) required 1300 nM.
